Reference: US9468225B2, “Oral compositions” (Symrise AG, priority 2013, dated 2016)

Key:
[1] = tested on: human neuroblastoma cells (SH-SY5Y); assay: Serotonin release by SH-SY5Y cells after 3-minute stimulation with alkamides (Serotonin-ELISA, normalized to DNA); assay type: cell-based; conditions: for Serotonin release T/C [%]: relative to EtOH control, 3 min stimulation
Method: (§1) The cell model used for the release of the neurotransmitters dopamine and serotonin are human neuroblastoma cells (SH-SY5Y, ATCC Number CRL-2266). Cultivation is performed at 37° C. and with a 5% CO2 content using a mixture containing at equal parts Eagle's Minimum Essential Medium (MEM) and F12 Medium (each having 10% FBS and 1% Penicillin/Streptomycin). To measure the release of dopamine and serotonin, the cells are harvested with trypsin and seeded, after a vitality check using trypan blue tests, in a defined cell number in 35 mm cell culture dishes.
After a 3-minute stimulation of 1.25*10^6 human neuroblastoma cells (SH-SY5Y) with 300 μL Krebs-Ringer-HEPES buffer, 0.1% ascorbic acid, pH 6.2, with, or without, the addition of an alkamide (trans-Pellitorine, dihydropellitorine, spilanthol, wherein when adding the alkamide in concentrations of 0.001 μM, 0.1 μM 1 μM and 10 μM within the Krebs-Ringer-HEPES buffer is adjusted), the serotonin content is detected by means of an enzyme-based method of detection (Serotonin-ELISA sensitive, DLD Diagnostica, Hamburg, Germany). The cells are lysed with a buffer containing sodium lauryl sarcosinate and the DNA content is detected by means of a NanoQuant plate (Tecan, Ménnendorf, Switzerland) to normalize serotonin release.
FIGS. 1a and 1b represent the release of serotonin after incubation with t-pellitorine (2) (FIG. 1A) in concentrations of 0.001 μM, 0.1 μM, 1 μM and 10 μM or other alkamides (FIG. 1B: 1=t-pellitorine, 2=dihydropellitorine, 3=spilanthol)). Results are represented in % relative to control (buffer with 0.1% ethanol) n=3, tR=2. Significant differences of control treatment were tested using a one-way ANOVA with a subsequent Holm-Sidak post hoc test and marked according to the following pattern: *p≦0.05; **p.≦0.01; ***p≦0.001.

[2] = tested on: differentiated CaCo-2 cells; assay: Fatty acid uptake (BODIPY fatty acid) in differentiated CaCo-2 cells; assay type: cell-based, human; conditions: for Fatty acid uptake T/C [%]: 30 min preincubation, area below the curve over 60 min vs ethanol control
Method: The cell model used for short-term uptake of free fatty acids and long-term lipid accumulation in the adipocytes are murine fibroblasts (3T3-L1, ATTC Number CL-173) after the cells differentiated to form adipocytes. 3T3-L1 fibroblasts are cultivated at 37° C. and a 5% CO2 content with Dulbecco's Modified Eagle Medium (DMEM) having 10% FBS, 4% L-Glutamin and 1% Penicillin/Streptomycin (=basal medium). Adipocyte differentiation occurs two days after reaching confluence by adding 10 μg/L Insulin, 1 μM dexamethasone and 0.5 mM Isobutylmethylxanthin into the culture medium (=differentiation medium). After two days of cultivation in differentiation medium the adipocytes are allowed to mature for two further days by adding 10 μg/L insulin into the culture medium (=maturation medium). After having spent between three and five days in basal medium, the adipocytes are optimally differentiated and show by inclusion of lipid droplets the phenotype that is typical for adipocytes. Human colon cell line CaCo-2 (ATCC Number HTB-37) is used as a cell model for the uptake of free fatty acids by the small intestine after they have differentiated to form a phenotype corresponding to enterocytes. CaCo-2 cells are cultivated at 37° C. with a 5% CO2 content with Dulbecco's Modified Eagle Medium (DMEM) with 10% FBS, 2% L-glutamin and 1% penicillin/streptomycin. Enterocyte differentiation is performed by cultivating the cells in a period of 18 days after they reach confluence. After differentiation of the CaCo-2 cells to form an enterocyte phenotype, the cells are incubated with serum-free medium for an hour. Subsequently the cells are pre-treated with 0.1 μM, 1 μM and 10 μM t-pellitorine for 30 minutes and the free fatty acid uptake into the cells was measured by means of the fluorescence marked fatty acid BODIPY® (QBT Fatty Acid Up-take Corporation, Germany) at a fluorescence microplate reading device (Tecan, Ménnendorf, Switzerland) every 20 seconds for a period of 60 minutes. […] The results are represented as an area below the curve after measuring for 60 minutes in comparison to control (1, buffer with 0.1% ethanol). n=3, tR=2-3. Significant differences between the treatment and control were tested by means of a one-way ANOVA followed by a Holm-Sidak post hoc test and marked according to the following pattern: *p≦0.05; **p.≦0.01; ***p≦0.001

3T3-L1 cells [3] = assay: Fatty acid uptake (BODIPY fatty acid) in 3T3-L1 adipocytes; assay type: cell-based, murine; conditions: for Fatty acid uptake T/C [%]: 30 min preincubation, area below the curve over 60 min vs ethanol control
Method: (§2) The cell model used for short-term uptake of free fatty acids and long-term lipid accumulation in the adipocytes are murine fibroblasts (3T3-L1, ATTC Number CL-173) after the cells differentiated to form adipocytes. 3T3-L1 fibroblasts are cultivated at 37° C. and a 5% CO2 content with Dulbecco's Modified Eagle Medium (DMEM) having 10% FBS, 4% L-Glutamin and 1% Penicillin/Streptomycin (=basal medium). Adipocyte differentiation occurs two days after reaching confluence by adding 10 μg/L Insulin, 1 μM dexamethasone and 0.5 mM Isobutylmethylxanthin into the culture medium (=differentiation medium). After two days of cultivation in differentiation medium the adipocytes are allowed to mature for two further days by adding 10 μg/L insulin into the culture medium (=maturation medium). After having spent between three and five days in basal medium, the adipocytes are optimally differentiated and show by inclusion of lipid droplets the phenotype that is typical for adipocytes. Human colon cell line CaCo-2 (ATCC Number HTB-37) is used as a cell model for the uptake of free fatty acids by the small intestine after they have differentiated to form a phenotype corresponding to enterocytes. CaCo-2 cells are cultivated at 37° C. with a 5% CO2 content with Dulbecco's Modified Eagle Medium (DMEM) with 10% FBS, 2% L-glutamin and 1% penicillin/streptomycin. Enterocyte differentiation is performed by cultivating the cells in a period of 18 days after they reach confluence.
After differentiation of 3T3-L1 fibroblasts to form adipocytes, 65000 cells per well are seeded in a 96 well plate and incubated at 37° C. for four hours with basal medium (DMEM+10% fetal bovine serum) and then incubated for an hour with serum-free medium. The cells were pre-treated with 0.1 μM, 1 μM and 10 μM t-pellitorine for 30 minutes. The uptake of free fatty acids into the cells was measured by means of the fluorescence-marked fatty acid BODIPY® (QBT Fatty Acid Uptake Corporation, Germany) with a fluorescence microplate reading device (Tecan, Ménnendorf, Switzerland) every 20 seconds for a period of 60 minutes.
The results are represented as an area below the curve after measuring of 60 minutes in comparison with control (1, buffer with 0.1% Ethanol). n=3, tR=2-3. Significant differences between the treatment and control were tested by means of an one-way ANOVA followed by a Holm-Sidak post hoc test and marked according to the following pattern: *p≦0.05; **p.≦0.01; ***p≦0.001

3T3-L1 cells [4] = assay: Long time lipid accumulation (Oil-Red O) in 3T3-L1 adipocytes; assay type: cell-based, murine; conditions: 10 days treatment, vs ethanol control
Method: as §2, with “confluence. After differentiation of the 3T3-L1 fibroblasts to form adipocytes the cells are treated for 10 days with trans-pellitorine in concentrations of 0.001 μM, μM 0.1 μM, 1 μM and 10 μM and a final concentration of 10 μg/L insulin. […] The dye Oil-Red 0 is subsequently removed by means of 100% isopropanol, and absorption of the Oil-Red 0 solution, which behaves proportionally to the lipid droplets of the cells, was determined by means of a microplate reading device (Tecan, Ménnendorf, Switzerland). […]” for “confluence.”

[5] = tested on: human neuroblastoma cells (SH-SY5Y); assay: Dopamine release by SH-SY5Y cells after 3-minute stimulation with trans-pellitorine (Dopamin-ELISA, normalized to DNA); assay type: cell-based; conditions: for Dopamine release T/C [%]: relative to EtOH control, 3 min stimulation
Method: as §1
After a 3-minute stimulation of 1.25*10^6 of human neuroblastoma cells (SH-SY5Y) with 350 μL Krebs-Ringer-HEPES Puffer (1), pH 5, with or without the addition of trans-pellitorine (2) in concentrations of 0.001 μM, 0.1 μM, 1 μM and 10 μM the supernatant is acidified with 1 N HCl and the dopamine content is determined by means of an enzyme-based method of detection (Dopamin-ELISA, DLD Diagnostica, Hamburg, Germany). The cells are lysed with a buffer containing sodium lauryl sarcosinate and the DNAN content is determined by means of a NanoQuant plant (Tecan, Ménnendorf, Switzerland) for normalization of dopamine release. During an ethanol control (EtOH control) no trans-pellitorine is added to the Krebs-Ringer-HEPES buffer, but ethanol is added to the buffer such that a 0.1% ethanolic Krebs-Ringer-HEPES buffer solution is obtained.
FIG. 2 represents the release of dopamin after incubation with t-pellitorine (2) in concentrations of 0.001 μM, 0.1 μM, 1 μM and 10 μM. The results are represented in a […] expressed in percent (buffer with 0.1% ethanol). n=3, tR=2. Significant differences between the treatments and control were tested using a one-way ANOVA with a subsequent Holm-Sidak post hoc test and marked according to the following pattern: *p≦0.05; **p.≦0.01; ***p≦0.001.

## CCCCCCC/C=C/C(=O)NCC(C)C [Dihydropellitorine, 2E-decenoic acid-N-isobutylamide]
[1]; 0.001 μM
  Serotonin release T/C [%]: 140.9%
[1]; 0.1 μM
  Serotonin release T/C [%]: 87.41%
[1]; 1 μM
  Serotonin release T/C [%]: 124.3%
[1]; 10 μM
  Serotonin release T/C [%]: 144.5%

## C/C=C/C=C\CC/C=C/C(=O)NCC(C)C [Spilanthol, 2E,6Z,8E-decatrienoic acid N-isobutylamide]
[1]; 0.001 μM
  Serotonin release T/C [%]: 105.6%
[1]; 0.1 μM
  Serotonin release T/C [%]: 129.9%
[1]; 1 μM
  Serotonin release T/C [%]: 103.8%
[1]; 10 μM
  Serotonin release T/C [%]: 91.77%

## CCCCC/C=C/C=C/C(=O)NCC(C)C [trans-pellitorine, 2E,4E-decadienic acid-N-isobutylamide]
[1]; 0.001 μM
  Serotonin release T/C [%]: 105.3%
[1]; 0.1 μM
  Serotonin release T/C [%]: 140.2%
[1]; 100 nM, SH-SY5Y cells
  increase of the release of serotonin: 40%
[1]; 1 μM
  Serotonin release T/C [%]: 128.8%
[1]; 10 μM
  Serotonin release T/C [%]: 93.02%
[2]; 0.1 μM
  Fatty acid uptake T/C [%]: 107.8%
[2]; 1 μM
  Fatty acid uptake T/C [%]: 98.7%
[2]; 10 μM
  Fatty acid uptake T/C [%]: 97.8%
[2]; 100 μM
  Fatty acid uptake T/C [%]: 86.0%
[2]; preincubation with 100 μM, 30 minutes
  reduction of free fatty acid uptake in an enterocyte model: 14%
3T3-L1 cells [3]; 0.1 μM
  Fatty acid uptake T/C [%]: 93.84%
3T3-L1 cells [3]; 1 μM
  Fatty acid uptake T/C [%]: 96.63%
3T3-L1 cells [3]; 10 μM
  Fatty acid uptake T/C [%]: 91.95%
3T3-L1 cells [3]; preincubation with 10 μM
  reduction of fatty acid uptake in adipocytes: 9%
3T3-L1 cells [4]; 0.001 μM
  Lipid accumulation T/C [%]: 94.60%
3T3-L1 cells [4]; 0.1 μM
  Lipid accumulation T/C [%]: 92.94%
3T3-L1 cells [4]; 1 μM
  Lipid accumulation T/C [%]: 93.46%
[5]; 0.001 μM
  Dopamine release T/C [%]: 99.68%
[5]; 0.1 μM
  Dopamine release T/C [%]: 182.7%
[5]; 100 nM, SH-SY5Y cells
  increase of dopamine release: 80%
[5]; 1 μM
  Dopamine release T/C [%]: 106.8%
[5]; 10 μM
  Dopamine release T/C [%]: 127.3%
